Reference: article PMC11336141
Bridge positions count the residues as written; N and C are the ends. Square brackets hold non-standard residues; d marks the D form. Peptide text beside a SMILES is read from it.

How the values were obtained:
[1] = Solubility in aqueous solutions (observation); conditions: comparison of des-glyco nG1, pG1 and venom fraction
Dr-sstr2b (GoA) = assay: G protein dissociation assay, GoA at Dr-sstr2b; format: cell-based, zebrafish (Danio rerio)
From the text: 3xHA-tagged human SSTR2 construct was obtained from cDNA.org (cDNA resource center, Bloomsburg PA, US). […] Kirill Martemyanov (University of Florida, US). Tango constructs for human SSTR1-5 were kind gifts from Prof. Bryan Roth (University of North Carolina, Chapel Hill, US) (Addgene kit # 1000000068). Tango constructs for fish Dr-sstr2a (sequence accession number: XP_005170178.1) and Dr-sstr2b (sequence accession number: XP_017210358.1) were custom-synthesized by Twist Biosciences using the Tango construct template as described in Kroeze et al., 2015[28]. 3xHA-tagged Dr-sstr2a and 3xHA tagged Dr-sstr2b constructs were inserted into pcDNA3.1 backbone. All DNA constructs were sequenced and confirmed prior to use.
Error bars represent means ± S.E.M. of n = 3 in technical duplicates.

human SSTR2 (GoA) = human SSTR2 (GoA) (Homo sapiens, UniProt P30874); assay: G protein activation (BRET dissociation) assay, GoA at hSSTR2;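 on Emax: percent of the maximal response to the reference somatostatin agonist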
Procedure: (§2) HEK293T cells were seeded onto 6-well plates at a density of 750,000 cells/well. […] 16 to 24 hours post-transfection, HEK293T cells were seeded onto white 96 well plate (PerkinElmer) coated with poly-L-lysine (PLL) at a density of 40,000 cells/well and were allowed to grow overnight. On the day of assay, cells were washed once with phosphate-based saline (PBS) and 80 µL of assay buffer which composed of PBS with 0.5 mM MgCl2 and 0.1% glucose, pH 7.4, were added onto each well. 10 µL of Nluc luciferase substrate furimazine (Promega) were added onto each well and incubated for 3 minutes.
(§3) The net BRET ratio was determined by subtracting the BRET ratio of drugs with the BRET ratio of vehicle control. Net BRET ratio over time was then plotted using GraphPad Prism (v.9.4.1), and the area-under-curve of net BRET ratio over time course for each ligand concentration tested were then determined and plotted against log(concentration) of drugs tested. […] Concentration response curves were fitted with a 4-parameter logistic Eq. (1) using GraphPad Prism (v.9.4.1):1 Y=Emin+(Emax−Emin)/1+10^logEC50−X×Hillslope

perfused rat pancreas [2] = assay: Rat pancreas perfusion, somatostatin output; set-up: species or system rat (Wistar); conditions: 0.1 nM, 1 nM and 10 nM, […] glucose, n = 10 rats
Procedure: Non-fasted rats were anesthetized by a subcutaneous injection of a balanced mix of hypnorm and midazolam (0.3 mL/100 g body weight). Rats were placed on a heated operating table (37 °C) and the abdomen were opened. Blood vessels were tied off before removing the large and small intestines, the stomach, and the spleen. Then, the kidneys were ligated. […] The perfusion buffer was a modified Krebs-Ringer bicarbonate buffer with 5% (w/v) dextran T-70 (Pharmacosmos, Holbaek, Denmark), 0.1% (w/v) BSA (fraction V), 3.5 mM glucose and 3 mM vamin (Fresenius Kabi, Copenhagen, Denmark), pH adjusted to 7.4. […] Once perfusion of the pancreas was established, a catheter was inserted in the vena portae to collect the venous effluent and the rat was sacrificed by perforation of the diaphragm. After a 30-minute equilibration period, samples were collected every minute for the duration of the protocol. […] Glucagon, insulin, and somatostatin concentrations in venous effluents were quantified by use of validated in-house radioimmunoassays (RIA) as previously described[36] […]
Glucagon concentration in perfusion samples were measured by a validated in-house RIAs using the 4305 antibody, which reacts with the C-terminal epitope of glucagon[36] and no other cleavage products of pro-glucagon. Insulin concentrations were measured with the 2006 antibody, which measures all isoforms of rat insulin. […]

human SSTR2 (Gi2) = target: T1, human SSTR2 (Gi2) (Homo sapiens, UniProt P30874); assay: G protein activation (BRET dissociation) assay, Gi2 at hSSTR2; format: cell-based;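 on Emax ± S.E.M.: percent of the maximal response to the reference somatostatin agonist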
T1 construct: host or cells: HEK293T cells
Procedure: as §2, §3

isolated mouse islets = assay: Glucagon secretion from isolated islets; format: cell-based, mouse (C57BL/6J); conditions: for Islet glucagon secretion: -9 log M peptide
Procedure: Female C57BL/6 J mice of 12–20 weeks were used for the islet secretion. Mice were killed by cervical dislocation and pancreatic islets were isolated as previously described. […] The islets were subsequently incubated with or without drugs in 10 mM glucose KRB for an hour. Supernatant from both incubations were collected. Total islet glucagon content was determined by acid-ethanol extraction. Both the supernatant and the acid-ethanol content were stored at −80 °C until further analysis. Glucagon in both supernatant and content were measured using U-plex metabolic 2-plex combo (mouse insulin and glucagon) kit (Meso Scale Diagnostic; catalog no: K15303K) according to manufacturer’s instruction.
(§1) Data analysis were performed in GraphPad Prism (v.9.4.1). Statistical analysis were performed using two-way repeated measure analysis of variance (ANOVA) with Šidák test for isolated islets glucagon secretion and one-way repeated measure ANOVA with Dunnett's test for rat pancreas perfusion experiments. Statistical significance was taken as p < 0.05.

human SSTR2 (GoB) = target: T2, human SSTR2 (GoB) (Homo sapiens, UniProt P30874); assay: G protein activation (BRET dissociation) assay, GoB at hSSTR2; format: cell-based;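 on Emax ± S.E.M.: percent of the maximal response to the reference somatostatin agonist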
T2 construct: host or cells: HEK293T cells
Procedure: as §2, §3

perfused rat pancreas [3] = assay: Rat pancreas perfusion, insulin output; set-up: species or system rat (Wistar); conditions: for effect on insulin secretion: 0.1 nM, 1 nM and 10 nM, […] glucose, n = 5 rats; for Insulin output: Mean
Procedure: Non-fasted rats were anesthetized by a subcutaneous injection of a balanced mix of hypnorm and midazolam (0.3 mL/100 g body weight). Rats were placed on a heated operating table (37 °C) and the abdomen were opened. Blood vessels were tied off before removing the large and small intestines, the stomach, and the spleen. Then, the kidneys were ligated. […] The perfusion buffer was a modified Krebs-Ringer bicarbonate buffer with 5% (w/v) dextran T-70 (Pharmacosmos, Holbaek, Denmark), 0.1% (w/v) BSA (fraction V), 3.5 mM glucose and 3 mM vamin (Fresenius Kabi, Copenhagen, Denmark), pH adjusted to 7.4. […] Once perfusion of the pancreas was established, a catheter was inserted in the vena portae to collect the venous effluent and the rat was sacrificed by perforation of the diaphragm. After a 30-minute equilibration period, samples were collected every minute for the duration of the protocol. […] 10 mM L-Arginine was used as a positive control. Collected samples were immediately transferred on ice and stored at −20 °C until hormone analysis. Glucagon, insulin, and somatostatin concentrations in venous effluents were quantified by use of validated in-house radioimmunoassays (RIA) as previously described[36] (see below). Statistical analysis were performed where appropriate using one-way analysis of variance (ANOVA) with Dunnett’s post-test. Statistical significance was taken as p < 0.05.
Glucagon concentration in perfusion samples were measured by a validated in-house RIAs using the 4305 antibody, which reacts with the C-terminal epitope of glucagon[36] and no other cleavage products of pro-glucagon. Insulin concentrations were measured with the 2006 antibody, which measures all isoforms of rat insulin. […] Assay sensitivity was <1 pmol/L ( < 5 pmol/L for insulin detection), allowing reliable measurements of increments of at least 25 fmol/min.
as §1

human SSTR2 (Gi1) = target: T3, human SSTR2 (Gi1) (Homo sapiens, UniProt P30874); assay: G protein activation (BRET dissociation) assay, Gi1 at hSSTR2; format: cell-based;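 on Emax ± S.E.M.: percent of the maximal response to the reference somatostatin agonist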
T3 construct: host or cells: HEK293T cells
T3 sequence (P30874 whole entry): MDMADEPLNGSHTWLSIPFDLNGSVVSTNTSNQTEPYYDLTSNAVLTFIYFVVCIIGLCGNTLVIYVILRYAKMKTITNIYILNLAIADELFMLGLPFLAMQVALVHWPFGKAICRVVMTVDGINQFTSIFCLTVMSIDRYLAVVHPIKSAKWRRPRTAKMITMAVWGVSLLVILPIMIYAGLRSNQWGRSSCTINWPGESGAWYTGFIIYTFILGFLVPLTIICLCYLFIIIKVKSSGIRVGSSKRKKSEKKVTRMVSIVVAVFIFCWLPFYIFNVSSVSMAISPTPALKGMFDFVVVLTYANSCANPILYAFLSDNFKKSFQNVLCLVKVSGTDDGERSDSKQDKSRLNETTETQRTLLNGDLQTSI
Procedure: as §2, §3

T1 sequence (P30874 whole entry): as above
Sequence of human SSTR2 (GoA) (P30874 whole entry, the tested form may be a part): as the sequence (P30874 whole entry) above
T2 sequence (P30874 whole entry): as above

Compound: CC(C)C[C@H](N)C(=O)N[C@@H](Cc1ccccc1)C(=O)N[C@H]1CSSC[C@@H](C(=O)N[C@@H](Cc2c[nH]c3ccccc23)C(=O)O)NC(=O)[C@H](CO)NC(=O)[C@H](CCCCN)NC(=O)[C@@H](Cc2c[nH]c3ccccc23)NC(=O)[C@H](Cc2ccccc2)NC1=O [pG1] (H-LFCF[dW]KSCW-OH; disulfide 3-8)
- solubility in aqueous solutions in words [1]: did not observe any obvious differences in the solubility
- GoA dissociation at Dr-sstr2b in words (Dr-sstr2b (GoA); HEK293T cells): only induced GoA dissociation at the Dr-sstr2b but not the Dr-sstr2a
- Hill Slope (Dr-sstr2b (GoA); Table S5, GoA): 0.48 ± 0.10
- Span ± S.E.M. (Dr-sstr2b (GoA); Table S5, GoA): 100.43 ± 11.98
- Emax ± S.E.M. (Dr-sstr2b (GoA); Table S5, GoA, % of maximal response relative to SS-14): 105.52 ± 10.37%
- pEC50 ± S.E.M. (Dr-sstr2b (GoA); Table S5, GoA, HEK293T): 7.95 ± 0.19
- EC50 (human SSTR2 (GoA)): 5.13 nM
- Hill Slope (human SSTR2 (GoA); Table S2, GαoA): 1.04 ± 0.25
- Span ± S.E.M. (human SSTR2 (GoA); Table S2, GαoA): 97.45 ± 6.80
- GoA activation/dissociation in words (human SSTR2 (GoA); hSSTR2, HEK293T cells): most potent at dissociating GoA protein among all Gi/o proteins tested
- Emax (human SSTR2 (GoA); read-out: Emax ± S.E.M.): 97.9 ± 4.11%
- effect on somatostatin secretion (perfused rat pancreas [2]): did not affect insulin and somatostatin output at low glucose (3.5 mM)
- effect on somatostatin secretion (perfused rat pancreas [2]; listed as Consomatin pG1): no effect on somatostatin or insulin secretion in 3.5 mM glucose
- Emax (human SSTR2 (Gi2)): 91 ± 4.6%
- Hill Slope (human SSTR2 (Gi2); Table S2, Gαi2): 1.11 ± 0.22
- Span ± S.E.M. (human SSTR2 (Gi2); Table S2, Gαi2): 83.42 ± 5.67
- EC50 (human SSTR2 (Gi2); Table S2, Gαi2, HEK293T, means ± S.E.M.): 1.35 nM
- decrease of glucagon secretion (isolated mouse islets; 1 nM peptide, 1 mM glucose, 1 hour, p < 0.01, n = 9): ~ 33%
- effect on glucagon secretion in high glucose (isolated mouse islets; 1 nM peptide, 10 mM glucose): Neither SS-14 nor Consomatin pG1 affected glucagon secretion in high glucose conditions
- Islet glucagon secretion (isolated mouse islets; 1mM glucose, replicate 1): 0.1528
- Islet glucagon secretion (isolated mouse islets; 1mM glucose, replicate 2): 0.1799
- Islet glucagon secretion (isolated mouse islets; 1mM glucose, replicate 3): 0.229
- Islet glucagon secretion (isolated mouse islets; 1mM glucose, replicate 4): 0.1754
- Islet glucagon secretion (isolated mouse islets; 1mM glucose, replicate 5): 0.2817
- Islet glucagon secretion (isolated mouse islets; 1mM glucose, replicate 6): 0.2671
- Islet glucagon secretion (isolated mouse islets; 1mM glucose, replicate 7): 0.309
- Islet glucagon secretion (isolated mouse islets; 1mM glucose, replicate 8): 0.2377
- Islet glucagon secretion (isolated mouse islets; 1mM glucose, replicate 9): 0.1574
- Islet glucagon secretion (isolated mouse islets; 10mM glucose, replicate 1): 0.1057
- Islet glucagon secretion (isolated mouse islets; 10mM glucose, replicate 2): 0.1136
- Islet glucagon secretion (isolated mouse islets; 10mM glucose, replicate 3): 0.1366
- Islet glucagon secretion (isolated mouse islets; 10mM glucose, replicate 4): 0.1392
- Islet glucagon secretion (isolated mouse islets; 10mM glucose, replicate 5): 0.1398
- Islet glucagon secretion (isolated mouse islets; 10mM glucose, replicate 6): 0.1241
- Islet glucagon secretion (isolated mouse islets; 10mM glucose, replicate 7): 0.1488
- Islet glucagon secretion (isolated mouse islets; 10mM glucose, replicate 8): 0.2037
- Islet glucagon secretion (isolated mouse islets; 10mM glucose, replicate 9): 0.1689
- Emax (human SSTR2 (GoB)): 76.7 ± 3.62%
- Hill Slope (human SSTR2 (GoB); Table S2, GαoB): 1.46 ± 0.41
- Span ± S.E.M. (human SSTR2 (GoB); Table S2, GαoB): 76.77 ± 4.97
- EC50 (human SSTR2 (GoB); Table S2, GαoB, HEK293T, means ± S.E.M.): 8.32 nM
- effect on insulin secretion (perfused rat pancreas [3]): did not affect insulin and somatostatin output at low glucose (3.5 mM)
- effect on insulin secretion (perfused rat pancreas [3]; listed as Consomatin pG1): no effect on somatostatin or insulin secretion in 3.5 mM glucose
- Insulin output (perfused rat pancreas [3]; 0.1nM, replicate 1): 35.5
- Insulin output (perfused rat pancreas [3]; 0.1nM, replicate 2): 10
- Insulin output (perfused rat pancreas [3]; 0.1nM, replicate 3): 25.5
- Insulin output (perfused rat pancreas [3]; 0.1nM, replicate 4): 51
- Insulin output (perfused rat pancreas [3]; 0.1nM, replicate 5): 14
- Insulin output (perfused rat pancreas [3]; 1nM, replicate 1): 15.5556
- Insulin output (perfused rat pancreas [3]; 1nM, replicate 2): 29
- Insulin output (perfused rat pancreas [3]; 1nM, replicate 3): 40
- Insulin output (perfused rat pancreas [3]; 1nM, replicate 4): 74.5
- Insulin output (perfused rat pancreas [3]; 1nM, replicate 5): 0
- Insulin output (perfused rat pancreas [3]; 10nM, replicate 1): 25
- Insulin output (perfused rat pancreas [3]; 10nM, replicate 2): 0
- Insulin output (perfused rat pancreas [3]; 10nM, replicate 3): 15
- Insulin output (perfused rat pancreas [3]; 10nM, replicate 4): 35
- Insulin output (perfused rat pancreas [3]; 10nM, replicate 5): 11.5
- Emax (human SSTR2 (Gi1)): 95.6 ± 8.52%
- Hill Slope (human SSTR2 (Gi1); Table S2, Gαi1): 0.81 ± 0.28
- Span ± S.E.M. (human SSTR2 (Gi1); Table S2, Gαi1): 87.89 ± 11.1
- EC50 (human SSTR2 (Gi1); Table S2, Gαi1, HEK293T, means ± S.E.M.): 6.46 nM
